Where two headings read alike, the source gives them in different places.
Columns and labels:
GCN2 kinase = GCN2 kinase (Homo sapiens (Human), UniProt Q9P2K8); test: GCN2 Enzyme Inhibition Assay (Transcreener ADP2 fluorescence polarization); type: biochemical; details: 280 μM ATP, 200 μM (RS)7 peptide, 4 nM GCN2, 25° C.; for Ki: Ki(app)
Summary of the method: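 At 25 °C, GCN2 kinase (typical final concentration 4 nM) and (RS)7 peptide in Tris-HCl pH 7.5 buffer with MgCl2, NaCl and DTT were preincubated with compound for 10 min, then ATP was added for a 1 h reaction. ADP was read by FP with antibody/Alexa633 tracer. Non-linear tight-binding analysis gave IC50 and apparent Ki.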

[1] = biological target: intracellular GCN2 (phosphorylation of the GCN2 substrate eIF2α) (Homo sapiens (Human), UniProt Q9P2K8); test: GCN2 Cellular Inhibition Assay (AlphaScreen SureFire P-eIF2α Ser51, borrelidin-treated U2OS cells); type: cell-based; details: 10 μM borrelidin, 1 h
Summary of the method: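 Phospho-eIF2α (Ser51) measured by AlphaScreen SureFire in lysates of U2OS cells stimulated 1 h at 37 °C with 10 μM borrelidin alongside compound, 4-fold dilutions from 40 μM. Inhibition expressed as percent relative to borrelidin-alone controls.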

[2] = phosphorylated eIF2α Ser51, read-out: GCN2 Biomarker (IC50)

GCN2 kinase, sequence (Q9P2K8 whole entry): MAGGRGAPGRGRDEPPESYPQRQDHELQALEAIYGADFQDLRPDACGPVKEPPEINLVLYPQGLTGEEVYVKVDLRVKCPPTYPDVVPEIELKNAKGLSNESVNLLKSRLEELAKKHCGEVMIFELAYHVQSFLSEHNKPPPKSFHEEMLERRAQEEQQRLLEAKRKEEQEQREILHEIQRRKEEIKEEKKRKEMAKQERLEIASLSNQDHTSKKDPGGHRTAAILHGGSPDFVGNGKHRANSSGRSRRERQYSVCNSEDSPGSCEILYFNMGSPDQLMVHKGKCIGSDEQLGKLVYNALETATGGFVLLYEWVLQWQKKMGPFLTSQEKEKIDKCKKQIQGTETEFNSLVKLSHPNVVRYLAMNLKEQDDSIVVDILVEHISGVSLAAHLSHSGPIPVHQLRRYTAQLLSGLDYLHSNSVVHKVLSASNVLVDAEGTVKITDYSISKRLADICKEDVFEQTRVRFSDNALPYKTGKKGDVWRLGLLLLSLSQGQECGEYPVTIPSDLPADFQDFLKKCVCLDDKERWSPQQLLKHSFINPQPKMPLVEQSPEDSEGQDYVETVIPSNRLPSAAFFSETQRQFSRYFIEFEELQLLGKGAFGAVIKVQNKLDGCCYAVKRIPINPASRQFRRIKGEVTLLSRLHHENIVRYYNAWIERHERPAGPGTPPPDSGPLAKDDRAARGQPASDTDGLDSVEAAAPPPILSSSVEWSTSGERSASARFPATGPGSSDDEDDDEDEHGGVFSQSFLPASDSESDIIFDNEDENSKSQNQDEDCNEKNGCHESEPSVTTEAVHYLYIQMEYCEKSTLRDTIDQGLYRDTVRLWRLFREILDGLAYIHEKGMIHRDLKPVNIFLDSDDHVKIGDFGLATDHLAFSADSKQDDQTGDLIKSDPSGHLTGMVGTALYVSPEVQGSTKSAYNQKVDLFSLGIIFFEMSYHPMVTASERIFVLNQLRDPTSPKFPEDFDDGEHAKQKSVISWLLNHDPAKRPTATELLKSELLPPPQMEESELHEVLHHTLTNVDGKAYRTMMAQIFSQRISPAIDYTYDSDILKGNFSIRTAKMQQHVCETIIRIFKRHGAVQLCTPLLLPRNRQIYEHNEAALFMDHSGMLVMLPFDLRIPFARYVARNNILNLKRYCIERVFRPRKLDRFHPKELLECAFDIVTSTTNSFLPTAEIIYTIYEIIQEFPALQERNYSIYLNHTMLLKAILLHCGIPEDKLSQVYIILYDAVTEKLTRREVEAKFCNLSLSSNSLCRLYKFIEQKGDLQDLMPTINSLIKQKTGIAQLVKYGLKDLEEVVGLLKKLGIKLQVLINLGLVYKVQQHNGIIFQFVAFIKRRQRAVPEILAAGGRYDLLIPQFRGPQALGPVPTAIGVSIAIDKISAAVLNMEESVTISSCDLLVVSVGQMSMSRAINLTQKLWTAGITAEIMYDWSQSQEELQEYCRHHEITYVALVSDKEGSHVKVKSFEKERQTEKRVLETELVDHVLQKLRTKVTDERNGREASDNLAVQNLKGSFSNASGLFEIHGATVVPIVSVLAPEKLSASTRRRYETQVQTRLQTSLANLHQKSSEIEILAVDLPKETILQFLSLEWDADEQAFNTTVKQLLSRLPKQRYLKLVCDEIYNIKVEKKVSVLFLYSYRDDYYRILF
intracellular GCN2 (phosphorylation of the GCN2 substrate eIF2α), sequence (Q9P2K8 whole entry): as above

CC(C)(C(=O)O)C1CCCN(c2ccnc(-c3cnc4ccc(Cl)cn34)n2)C1 (centres unmarked) [I-284, 2-(1-(2-(6-chloroimidazo[1,2-a]pyridin-3-yl)pyrimidin-4-yl)piperidin-3-yl)-2-methylpropanoic acid]
IC50 (GCN2 kinase): 10 to 100 nM | IC50 [1, 2]: > 5000 nM

CC(=O)N1[C@H](C)CN(c2ccnc(-c3cnc4ccc(C(F)(F)F)cn34)n2)C[C@@H]1C [I-414, 1-(cis-2,6-dimethyl-4-(2-(6-(trifluoromethyl)imidazo[1,2-a]pyridin-3-yl)pyrimidin-4-yl)piperazin-1-yl)ethan-1-one]
IC50 (GCN2 kinase): 10 to 100 nM | IC50 [1, 2]: 500 to 5000 nM

CC1(C)CC1CN1CCN(c2ccnc(-c3cnc4ccc(C(F)(F)F)cn34)n2)CC1c1cn[nH]c1 (centres unmarked) [I-477, 3-(4-(4-((2,2-dimethylcyclopropyl)methyl)-3-(1H-pyrazol-4-yl)piperazin-1-yl)pyrimidin-2-yl)-6-(trifluoromethyl)imidazo[1,2-a]pyridine]
IC50 (GCN2 kinase): 10 to 100 nM | IC50 [1, 2]: < 500 nM

OC1(c2ccccc2)CCCN(c2ccnc(-c3cnc4cc(F)c(Cl)cn34)n2)C1 (centres unmarked) [I-81, 1-[2-(6-Chloro-7-fluoro-imidazo[1,2-a]pyridin-3-yl)-pyrimidin-4-yl]-3-phenyl-piperidin-3-ol]
Ki (GCN2 kinase): 10 to 100 nM | IC50 [1, 2]: 500 to 5000 nM

CC(=O)N1CCN(c2cccc(-c3cnc4ccc(C(F)(F)F)cn34)n2)CC1 [I-11, 1-[4-[6-[6-(Trifluoromethyl)imidazo[1,2-a]pyridin-3-yl]-2-pyridyl]piperazin-1-yl]ethanone]
Ki (GCN2 kinase): 10 to 100 nM | IC50 [1, 2]: > 5000 nM

Cc1[nH]ncc1C1CN(c2ccnc(-c3cnc4ccc(Cl)cn34)n2)CC(C)N1S(C)(=O)=O (centres unmarked) [I-268, 6-chloro-3-(4-(3-methyl-5-(5-methyl-1H-pyrazol-4-yl)-4-(methylsulfonyl)piperazin-1-yl)pyrimidin-2-yl)imidazo[1,2-a]pyridine]
IC50 (GCN2 kinase): < 10 nM | IC50 [1, 2]: 500 to 5000 nM

OCC1CCN(c2ccnc(-c3cnc4cc(F)c(Cl)cn34)n2)CC1c1ccccc1 (centres unmarked) [I-83, {1-[2-(6-Chloro-7-fluoro-imidazo[1,2-a]pyridin-3-yl)-pyrimidin-4-yl]-3-phenyl-piperidin-4-yl}-methanol]
Ki (GCN2 kinase): 10 to 100 nM | IC50 [1, 2]: 500 to 5000 nM

Cc1nn(C)cc1[C@@H]1CN(c2nccc(-c3cnc4ccc(C(F)(F)F)cn34)n2)C[C@H](C)O1 [I-157, (2R,6S)-2-(1,3-dimethyl-1H-pyrazol-4-yl)-6-methyl-4-(4-(6-(trifluoromethyl)imidazo[1,2-a]pyridin-3-yl)pyrimidin-2-yl)morpholine]
IC50 (GCN2 kinase): 100 to 1000 nM | IC50 [1, 2]: < 500 nM

CC1(C)C[C@@H]1CN1CCN(c2ccnc(-c3cnc4ccc(C(F)(F)F)cn34)n2)C[C@H]1c1cn[nH]c1 [I-529, 3-(4-((R)-4-(((S)-2,2-dimethylcyclopropyl)methyl)-3-(1H-pyrazol-4-yl)piperazin-1-yl)pyrimidin-2-yl)-6-(trifluoromethyl)imidazo[1,2-a]pyridine]
IC50 (GCN2 kinase): < 10 nM | IC50 [1, 2]: < 500 nM

FC(F)(F)c1ccc2ncc(-c3nccc(N4CCN(CC5CC5)C(c5cn[nH]c5)C4)n3)n2c1 (centres unmarked) [I-369, 4-[4-(cyclopropylmethyl)-3-(1H-pyrazol-4-yl)piperazin-1-yl]-2-[6-(trifluoromethyl)imidazo[1,2-a]pyridin-3-yl]pyrimidine]
IC50 (GCN2 kinase): < 10 nM | IC50 [1, 2]: < 500 nM

FC1(F)CCCN(c2ccnc(-c3cnc4ccc(C(F)(F)F)cn34)n2)C1 [I-224, 3-(4-(3,3-difluoropiperidin-1-yl)pyrimidin-2-yl)-6-(trifluoromethyl)imidazo[1,2-a]pyridine]
IC50 (GCN2 kinase): 100 to 1000 nM | IC50 [1, 2]: < 500 nM

Cc1noc([C@H]2CN(c3ccnc(-c4cnc5ccc(Cl)cn45)n3)C[C@@H](C)O2)n1 [I-63]
Ki (GCN2 kinase): < 10 nM | IC50 [1, 2]: < 500 nM

FC(F)(F)c1ccc2ncc(-c3nccc(N4CCN(Cc5cocn5)C(c5cn[nH]c5)C4)n3)n2c1 (centres unmarked) [I-353, 4-((2-(1H-pyrazol-4-yl)-4-(2-(6-(trifluoromethyl)imidazo[1,2-a]pyridin-3-yl)pyrimidin-4-yl)piperazin-1-yl)methyl)oxazole]
IC50 (GCN2 kinase): < 10 nM | IC50 [1, 2]: < 500 nM

C[C@@H]1CN(c2ccnc(-c3cnc4ccc(C(F)(F)F)cn34)n2)C[C@H](C)N1C(=O)C1CC1 [I-403, cyclopropyl(cis-2,6-dimethyl-4-(2-(6-(trifluoromethyl)imidazo[1,2-a]pyridin-3-yl)pyrimidin-4-yl)piperazin-1-yl)methanone]
IC50 (GCN2 kinase): 100 to 1000 nM | IC50 [1, 2]: 500 to 5000 nM

Cc1cnc(N2C[C@@H](C)C[C@@H](c3cn[nH]c3)C2)nc1-c1cnc2ccc(Cl)cn12 [I-186, 6-chloro-3-(5-methyl-2-((3S,5S)-3-methyl-5-(1H-pyrazol-4-yl)piperidin-1-yl)pyrimidin-4-yl)imidazo[1,2-a]pyridine]
IC50 (GCN2 kinase): < 10 nM | IC50 [1, 2]: < 500 nM

CC1(C)CN(c2ccnc(-c3cnc4ccc(C(F)(F)F)cn34)n2)CC2(CNC2)O1 [I-294, 6,6-dimethyl-8-(2-(6-(trifluoromethyl)imidazo[1,2-a]pyridin-3-yl)pyrimidin-4-yl)-5-oxa-2,8-diazaspiro[3.5]nonane]
IC50 (GCN2 kinase): 100 to 1000 nM | IC50 [1, 2]: > 5000 nM

CC1(C)CN(c2ccnc(-c3cnc4ccc(C(F)(F)F)cn34)n2)CCN1S(C)(=O)=O [I-339, 3-(4-(3,3-dimethyl-4-(methylsulfonyl)piperazin-1-yl)pyrimidin-2-yl)-6-(trifluoromethyl)imidazo[1,2-a]pyridine]
IC50 (GCN2 kinase): 10 to 100 nM | IC50 [1, 2]: 500 to 5000 nM

C[C@@H]1CCN(c2ccnc(-c3cnc4ccc(C(F)(F)F)cn34)n2)CC1F (stereo in doubt) [I-240, 3-(4-((3R,4R)-3-fluoro-4-methylpiperidin-1-yl)pyrimidin-2-yl)-6-(trifluoromethyl)imidazo[1,2-a]pyridine]
IC50 (GCN2 kinase): 100 to 1000 nM | IC50 [1, 2]: 500 to 5000 nM

CC1CC(CS(C)(=N)=O)C(C)N(c2ccnc(-c3cnc4ccc(Cl)cn34)n2)C1 (centres unmarked) [I-46, ((1-(2-(6-Chloroimidazo[1,2-a]pyridin-3-yl)pyrimidin-4-yl)-2,5-dimethylpiperidin-3-yl)methyl)(imino)(methyl)-λ^6-sulfanone]
Ki (GCN2 kinase): 10 to 100 nM | IC50 [1, 2]: 500 to 5000 nM

NS(=O)(=O)c1ccc2ncc(-c3nccc(N4CCCC(c5cn[nH]c5)C4)n3)n2c1 (centres unmarked) [I-320, 3-(4-(3-(1H-pyrazol-4-yl)piperidin-1-yl)pyrimidin-2-yl)imidazo[1,2-a]pyridine-6-sulfonamide]
IC50 (GCN2 kinase): 10 to 100 nM | IC50 [1, 2]: 500 to 5000 nM

CN(C)C(=O)C1CCCN(c2ccnc(-c3cnc4ccc(C(F)(F)F)cn34)n2)C1 (centres unmarked) [I-130, N,N-dimethyl-1-(2-(6-(trifluoromethyl)imidazo[1,2-a]pyridin-3-yl)pyrimidin-4-yl)piperidine-3-carboxamide]
IC50 (GCN2 kinase): 10 to 100 nM | IC50 [1, 2]: 500 to 5000 nM

CC1CC(C(N)=O)CN(c2ccnc(-c3cnc4ccc(C(F)(F)F)cn34)n2)C1 (centres unmarked) [I-149, 5-Methyl-1-[2-(6-trifluoromethyl-imidazo[1,2-a]pyridin-3-yl)-pyrimidin-4-yl]-piperidine-3-carboxylic acid amide]
IC50 (GCN2 kinase): < 10 nM | Ki (GCN2 kinase): < 10 nM | IC50 [1, 2]: < 500 nM

C[C@@H]1C[C@@H](c2cn[nH]c2)CN(c2nccc(-c3cnc4ccc(N5CC(F)(F)C5)cn34)n2)C1 [I-261, 6-(3,3-difluoroazetidin-1-yl)-3-(2-((3R,5S)-3-methyl-5-(1H-pyrazol-4-yl)piperidin-1-yl)pyrimidin-4-yl)imidazo[1,2-a]pyridine]
IC50 (GCN2 kinase): < 10 nM | IC50 [1, 2]: < 500 nM

CS(=O)(=O)NC1CC(C(F)(F)F)CN(c2ccnc(-c3cnc4ccc(C(F)F)cn34)n2)C1 (centres unmarked) [I-531, N-(1-(2-(6-(difluoromethyl)imidazo[1,2-a]pyridin-3-yl)pyrimidin-4-yl)-5-(trifluoromethyl)piperidin-3-yl)methanesulfonamide]
IC50 (GCN2 kinase): 10 to 100 nM | IC50 [1, 2]: < 500 nM

FC(F)(F)c1ccc2ncc(-c3nccc(N4CCN(C[C@@H]5CC56CCOCC6)[C@H](c5cn[nH]c5)C4)n3)n2c1 [I-520, 3-(4-((R)-4-(((R)-6-oxaspiro[2.5]octan-1-yl)methyl)-3-(1H-pyrazol-4-yl)piperazin-1-yl)pyrimidin-2-yl)-6-(trifluoromethyl)imidazo[1,2-a]pyridine]
IC50 (GCN2 kinase): 10 to 100 nM | IC50 [1, 2]: < 500 nM

CC1CN(c2ccnc(-c3cnc4ccc(Cl)cn34)n2)CC(c2cnn(S(C)(=O)=O)c2)N1S(C)(=O)=O (centres unmarked) [I-301, 6-chloro-3-(4-(3-methyl-4-(methylsulfonyl)-5-(1-(methylsulfonyl)-1H-pyrazol-4-yl)piperazin-1-yl)pyrimidin-2-yl)imidazo[1,2-a]pyridine]
IC50 (GCN2 kinase): 100 to 1000 nM | IC50 [1, 2]: 500 to 5000 nM

CC(C)(C)OC(=O)N1CC2(C1)CN(c1ccnc(-c3cnc4ccc(C(F)(F)F)cn34)n1)CCO2 [I-386, tert-butyl 8-(2-(6-(trifluoromethyl)imidazo[1,2-a]pyridin-3-yl)pyrimidin-4-yl)-5-oxa-2,8-diazaspiro[3.5]nonane-2-carboxylate]
IC50 (GCN2 kinase): 100 to 1000 nM | IC50 [1, 2]: 500 to 5000 nM

Cc1noc([C@H]2CN(c3ccnc(-c4cnc5ccc(Cl)cn45)n3)C[C@@H](C)O2)n1 [I-54]
Ki (GCN2 kinase): 10 to 100 nM | IC50 ([1]; GCN2 Biomarker (IC50), phosphorylated eIF2α Ser51): 500 to 5000 nM

C[C@@H]1CN(c2nccc(-c3cnc4cc(F)c(Cl)cn34)n2)C[C@H](c2cn[nH]c2)O1 [I-273, (2R,6S)-4-(4-(6-chloro-7-fluoroimidazo[1,2-a]pyridin-3-yl)pyrimidin-2-yl)-2-methyl-6-(1H-pyrazol-4-yl)morpholine]
IC50 (GCN2 kinase): < 10 nM | IC50 [1, 2]: < 500 nM
